Measurements taken from patent publication US10611740B2, “Aryl dihydro-2H-benzo[b][1,4]oxazine sulfonamide and related compounds for use as agonists of RORγ and the treatment of disease” (Lycera Corporation, priority 2015, dated 2020).

Key:
[1] = target: T1, RORγ-LBD (Homo sapiens, UniProt P51449); assay: RORγ-Ligand Binding Domain (LBD) TR-FRET Assay; assay type: biochemical;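 on TR-FRET Assay Max Response: 665/615 nm ratio relative to signal without ursolic acid or compound set at 100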
T1 construct: made in house; host or cells: SF9 cells (baculovirus)
T1 sequence (P51449 269-508 limits assumed): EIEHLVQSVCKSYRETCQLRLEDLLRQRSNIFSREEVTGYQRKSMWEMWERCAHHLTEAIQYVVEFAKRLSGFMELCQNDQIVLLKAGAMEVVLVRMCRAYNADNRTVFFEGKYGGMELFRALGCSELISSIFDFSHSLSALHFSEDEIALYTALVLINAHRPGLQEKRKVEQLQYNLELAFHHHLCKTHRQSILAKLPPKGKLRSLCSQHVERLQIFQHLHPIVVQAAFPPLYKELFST
Procedure, shortened: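 This TR-FRET coactivator assay pairs baculovirus-expressed His-RORγ-LBD (~3 nM final) with biotin-SRC1 LXXLL peptide at 200 nM final in pH 7.0 Tris/KCl/EDTA/DTT/BSA buffer.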

[2] = target: T2, Gal4-RORγ-LBD (Homo sapiens, UniProt P51449); assay: Gal4-RORγ Luciferase Reporter Assay in HEK-293T Cells; assay type: cell-based; conditions: HEK-293 cells
T2 construct: expressed in transfected cells; host or cells: HEK-293 cells (pcDNA3.1neo plasmid)
T2 sequence (P51449 269-508 limits assumed): T1 sequence (P51449 269-508 limits assumed)
Procedure, shortened: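 Luminescence read-out (One-Glo, 10 min RT) after overnight compound exposure at 37 °C in HEK-293 cells carrying Gal4-RORγ-LBD plus a Gal4-luciferase reporter, in the presence of 2 μM ursolic acid. Max Response is the upper plateau from a 4-parameter logistic fit, normalized to untreated signal = 100.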

[3] = luciferase reporter, with 2 μM ursolic acid

Row | EC50 [1] | EC50 [2, 3] | EC50 ([2]; 2 μM ursolic acid) | Compound | TR-FRET Assay Max Response [1] | Gal4-RORγ Assay Max Response [2, 3] | Gal4-RORγ Assay Max Response ([2]; 2 μM ursolic acid)
1 | < 500 nM | < 500 nM |  | CN(C)c1cccc(-c2ccc3c(c2)N(S(=O)(=O)c2cccc(C(F)(F)F)c2)C[C@H](CNC(=O)C2CC2)O3)n1 [Compound 30BC, (S)-N-((6-(6-(dimethylamino)-pyridin-2-yl)-4-((3-(trifluoro-methyl)phenyl)sulfonyl)-3,4-dihydro-2H-benzo[b][1,4]-oxazin-2-yl)methyl)cyclo-propanecarboxamide] | *** (The symbol “***” indicates a value in the range of greater than 150 to 200) | ** (The symbol “**” indicates a value in the range of greater than 90 to 150) | 
2 | < 500 nM | < 500 nM |  | O=C(O)CC[C@H]1CN(S(=O)(=O)c2cccc(C(F)(F)F)c2)c2cc(-c3cc(F)cc(F)c3Cl)c(Cl)cc2O1 [Compound 22G, (S)-3-(7-chloro-6-(2-chloro-3,5-difluorophenyl)-4-((3-(trifluoromethyl)phenyl)sulfonyl)-3,4-dihydro-2H-benzo[b][1,4]-oxazin-2-yl)propanoic acid] | *** (The symbol “***” indicates a value in the range of greater than 150 to 200) | ** (The symbol “**” indicates a value in the range of greater than 90 to 150) | 
3 | < 500 nM | < 500 nM |  | CC(C)(C#N)C(=O)NC[C@H]1CN(S(=O)(=O)c2cccc(C(F)(F)F)c2)c2cc(-c3cc(F)ccc3F)ccc2O1 [Compound 30AQ, (S)-2-cyano-N-((6-(2,5-difluoro-phenyl)-4-((3-(trifluoromethyl)-phenyl)sulfonyl)-3,4-dihydro-2H-benzo[b][1,4]oxazin-2-yl)methyl)-2-methylpropanamide] | *** (The symbol “***” indicates a value in the range of greater than 150 to 200) | * (The symbol “*” indicates a value in the range of 25 to 90) | 
4 | < 500 nM |  | 500 to 5000 nM | O=C(O)[C@H]1C[C@@H]1[C@H]1CN(S(=O)(=O)c2cccc(C(F)(F)F)c2)c2cc(-c3cc(F)cc(OC(F)F)c3)ccc2O1 [Compound 56, (1S,2S)-2-((S)-6-(3-(difluoromethoxy)-5-fluorophenyl)-4-((3-(trifluoromethyl)phenyl)sulfonyl)-3,4-dihydro-2H-benzo[b][1,4]oxazin-2-yl)cyclopropane-1-carboxylic acid] | ** (The symbol “**” indicates a value in the range of greater than 90 to 150) |  | ** (The symbol “**” indicates a value in the range of greater than 90 to 150)
5 | < 500 nM | 500 to 5000 nM |  | CC(C)(C[C@H]1CN(S(=O)(=O)c2cccc(C(F)(F)F)c2)c2cc(-c3cc(F)ccc3Cl)ccc2O1)C(=O)O [Compound 32I, (S)-3-(6-(2-chloro-5-fluorophenyl)-4-((3-(trifluoromethyl)phenyl)sulfonyl)-3,4-dihydro-2H-benzo[b][1,4]oxazin-2-yl)-2,2-dimethylpropanoic acid] | **** (The symbol “****” indicates a value greater than 200) | *** (The symbol “***” indicates a value in the range of greater than 150 to 200) | 
6 | < 500 nM | < 500 nM |  | Cc1cc(F)cc(-c2ccc3c(c2)N(S(=O)(=O)c2cccc(C(F)(F)F)c2)C[C@H](CCC(=O)O)O3)c1 [Compound 2BN, (S)-3-(6-(3-fluoro-5-methyl-phenyl)-4-((3-(trifluoromethyl)-phenyl)sulfonyl)-3,4-dihydro-2H-benzo[b][1,4]oxazin-2-yl)propanoic acid] | *** (The symbol “***” indicates a value in the range of greater than 150 to 200) | ** (The symbol “**” indicates a value in the range of greater than 90 to 150) | 
